Test results published in patent US6815557B2, “Tryptase inhibitors” (Altana Pharma AG, priority 1999, dated 2004).
Where a name gives a salt, the structure may show the parent alone.

Molecular target: human tryptase
Assay: Inhibition of human tryptase (apparent dissociation constant Kiapp, chromogenic substrate tos-Gly-Pro-arg-pNA, heparin-stabilized)
Assay type: biochemical
Settings: apparent dissociation constant in the presence of substrate; human tryptase from lung tissue or recombinant; heparin 0.1-50 μg/ml; equilibrium conditions
Source text: The documented pathophysiological effects of mast cell tryptase are caused directly by the enzymatic activity of the protease. Accordingly, they are reduced or blocked by inhibitors which inhibit the enzymatic activity of the tryptase. A suitable measure for the affinity of a reversible inhibitor to the target protease is the equilibrium dissociation constant Ki of the enzyme-inhibitor complex. This Ki value can be determined via the effect of the inhibitor on the tryptase-induced cleavage of a chromogenic peptide-p-nitroanilide substrate or a fluorogenic peptide-aminomethylcoumarin substrate.
The dissociation constants for the tryptase-inhibitor complexes are determined under equilibrium conditions in accordance with the general proposals of Bieth (Bieth J G, Pathophysiological Interpretation of kinetic constants of protease inhibitors, Bull. Europ. Physiopath. Resp. 16:183-195, 1980) and the methods of Sommerhoff et al. (Sommerhoff C P et al., A Kazal-type inhibitor of human mast cell tryptase: Isolation from the medical leech Hirudo medicinalis, characterization, and sequence analysis, Biol. Chem. Hoppe-Seyler 375: 685-694, 1994).
Human tryptase is isolated from lung tissue or prepared recombinantly; the specific activity of the protease, determined by titration, is usually greater than 85% of the theoretical value. […] After an equilibrium between the reaction partners has formed, the remaining enzyme activity after addition of the peptide-p-nitroanilide substrate tos-Gly-Pro-arg-pNA is determined and the cleavage of the latter is monitored at 405 nm for 3 min. Alternatively, the remaining enzymatic activity can also be determined using fluorogenic substrates. The apparent dissociation constants Kiapp (i.e. in the presence of substrate) are subsequently determined by adapting the enzyme rates to the general equation for reversible inhibitors (Morrison J F, Kinetics of the reversible inhibition of enzyme-catalyzed reactions by tight-binding inhibitors, Biochim. Biophys. Acta 185, 269-286, 1969) using non-linear regression: […]

Row | Ki [µM] | SMILES
1 | 0.006 | NCc1cccc(CNC(=O)OCCOCC#CCOCCOC(=O)NCc2cccc(CN)c2)c1 [Compound 1, 1,4-Bis-(3-aminomethylbenzylaminocarbonyl-1,2-dioxyethyl)-2-butyne dihydrochloride]
2 | 0.45 | NCc1ccc(CNC(=O)OCC#CC#CCOC(=O)NCc2ccc(CN)cc2)cc1 [Compound 2, 1,6-Bis-(4-aminomethylbenzylaminocarbonyl-1-oxy-2,4-hexadiynedihydrochloride]
3 | 0.1 | NCc1cccc(CNC(=O)OCC#CCOC(=O)NCc2cccc(CN)c2)c1 [Compound 3, 1,4-Bis-(3-aminomethylbenzylaminocarbonyl-1-oxy)-2-butyne dihydrochloride]
